As a reminder, the AC50 is the midpoint of the concentration-response curve, whichever way the signal moves.

Read-outs that look alike come from different tables or passages of the source.

For one test, the target named is monkey NPR1 (Macaca fascicularis, UniProt A0A7N9DBT9). Nature of the test: Cellular cGMP production assay, monkey NPR1 expressing CHO-K1 cells (CisBio HTRF). Format: cell-based. The following applies: for Monkey NPR1 Amax (% of ANP): maximum cGMP production as percentage of the maximum cGMP produced with ANP. The method, boiled down:
(§1)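 Step 1: add buffer (PBS, 0.1% BSA, 1 mM IBMX) and compounds, 3-fold series from 30 μM top. Step 2: incubate 30 min, 37 °C. Step 3: lyse; HTRF reagents 1 h at RT.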
(In general: In TR-FRET formats the signal depends on donor and acceptor labels being close together.)

The target of another test is T1, human NPR1 (Homo sapiens, UniProt P16066).
T1 construct: host or cells: CHO-K1
T1 sequence (P16066 33-1061): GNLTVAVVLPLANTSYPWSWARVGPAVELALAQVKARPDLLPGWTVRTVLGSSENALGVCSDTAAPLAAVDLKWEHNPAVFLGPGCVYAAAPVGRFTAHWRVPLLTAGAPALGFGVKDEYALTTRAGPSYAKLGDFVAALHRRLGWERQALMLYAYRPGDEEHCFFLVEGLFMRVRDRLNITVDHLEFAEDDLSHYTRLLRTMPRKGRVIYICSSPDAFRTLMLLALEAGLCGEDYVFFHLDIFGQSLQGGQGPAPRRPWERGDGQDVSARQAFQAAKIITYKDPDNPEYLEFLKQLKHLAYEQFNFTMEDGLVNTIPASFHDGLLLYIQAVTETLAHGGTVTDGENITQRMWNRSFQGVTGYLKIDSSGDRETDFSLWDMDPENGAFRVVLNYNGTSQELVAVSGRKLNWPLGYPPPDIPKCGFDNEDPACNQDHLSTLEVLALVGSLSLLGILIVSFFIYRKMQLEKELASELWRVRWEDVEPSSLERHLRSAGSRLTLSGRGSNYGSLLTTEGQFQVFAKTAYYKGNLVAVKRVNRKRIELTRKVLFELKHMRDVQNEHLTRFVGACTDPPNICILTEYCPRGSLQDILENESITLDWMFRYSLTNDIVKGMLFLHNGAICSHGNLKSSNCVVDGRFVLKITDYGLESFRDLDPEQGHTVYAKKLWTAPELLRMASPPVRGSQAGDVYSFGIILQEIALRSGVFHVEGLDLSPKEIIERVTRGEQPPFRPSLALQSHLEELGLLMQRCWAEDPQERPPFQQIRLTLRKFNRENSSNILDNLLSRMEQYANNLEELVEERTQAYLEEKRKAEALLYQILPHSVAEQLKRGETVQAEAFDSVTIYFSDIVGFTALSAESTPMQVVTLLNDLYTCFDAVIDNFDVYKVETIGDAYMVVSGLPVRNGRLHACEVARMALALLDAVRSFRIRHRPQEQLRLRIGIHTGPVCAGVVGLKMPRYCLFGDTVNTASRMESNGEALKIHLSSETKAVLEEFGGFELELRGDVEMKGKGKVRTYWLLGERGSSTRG
Nature of the test: Cellular cGMP production assay, human NPR1 expressing CHO-K1 cells (CisBio HTRF). Format: cell-based. Conditions: for AC50: cGMP production, 30 min at 37° C., 12-point dose-response from 30 μM; for Human NPR1 Amax (% of ANP): maximum cGMP production as percentage of the maximum cGMP produced with ANP. Put shortly:
as §1

[1] abbreviates: cGMP production, monkey NPR1 CHO-K1 cells, 30 min at 37° C., 12-point dose-response from 30 μM, read-out: Monkey NPR1 AC50.

Sequence of monkey NPR1 (A0A7N9DBT9 entry or part of it): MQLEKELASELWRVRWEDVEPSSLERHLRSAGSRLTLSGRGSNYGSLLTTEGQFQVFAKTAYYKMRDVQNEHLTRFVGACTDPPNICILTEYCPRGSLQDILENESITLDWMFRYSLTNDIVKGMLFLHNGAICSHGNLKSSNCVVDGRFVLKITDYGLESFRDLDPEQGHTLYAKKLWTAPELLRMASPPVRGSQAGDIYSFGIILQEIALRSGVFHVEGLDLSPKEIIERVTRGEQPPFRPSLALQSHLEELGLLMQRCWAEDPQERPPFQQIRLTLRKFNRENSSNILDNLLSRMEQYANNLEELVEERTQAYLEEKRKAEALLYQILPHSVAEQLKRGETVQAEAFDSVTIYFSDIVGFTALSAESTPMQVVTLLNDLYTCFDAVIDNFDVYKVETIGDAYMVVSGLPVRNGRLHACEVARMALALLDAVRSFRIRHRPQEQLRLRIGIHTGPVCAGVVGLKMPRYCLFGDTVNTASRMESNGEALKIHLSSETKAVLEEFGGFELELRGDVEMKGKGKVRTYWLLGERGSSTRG

Turning to `CC[C@@H](Nc1nc2c(c(N[C@@H](CN3C4CC5CC(C4)CC3C5)c3cnn(CC)c3)n1)C[C@H](c1ccccc1)CC2)[C@H]1CC[C@H](C(=O)O)CC1` [Compound 38, (1R,4r)-4-((R)-1-(((R)-4-(((R)-2-((1R,3R,5R,7R)-2-azaadamantan-2-yl)-1-(1-ethyl-1H-pyrazol-4-yl)ethyl)amino)-6-phenyl-5,6,7,8-tetrahydroquinazolin-2-yl)amino)propyl)cyclohexane-1-carboxylic acid], the AC50 at monkey NPR1 (setting [1]) came out at 83 nM; on human NPR1, 161 nM. Moreover, the “Monkey NPR1 Amax (% of ANP)” value on monkey NPR1 (monkey NPR1 CHO-K1 cells) is listed as 101.007 % of ANP. The “Human NPR1 Amax (% of ANP)” value on human NPR1 is 101.675 % of ANP.
For `CC[C@H]([C@H]1CC[C@H](C(=O)O)CC1)N(C)c1nc2c(c(N[C@@H](CN3C4CCCC3CC4)c3cc(C)n(C)n3)n1)C[C@H](c1cccc(F)c1)CC2` [Compound 88, (1R,4r)-4-((1R)-1-(((6R)-4-(((1S)-2-(8-azabicyclo[3.2.1]octan-8-yl)-1-(1,5-dimethyl-1H-pyrazol-3-yl)ethyl)amino)-6-(3-fluorophenyl)-5,6,7,8-tetrahydroquinazolin-2-yl)(methyl)amino)propyl)cyclohexane-1-carboxylic acid], at monkey NPR1, the AC50 turned out to be 255 nM. On monkey NPR1 (monkey NPR1 CHO-K1 cells), the “Monkey NPR1 Amax (% of ANP)” value is listed as 94.699 % of ANP. On human NPR1, the AC50 amounted to 303 nM and the “Human NPR1 Amax (% of ANP)” value is 98.817 % of ANP.
In the same order, the values of `CC[C@H]([C@H]1CC[C@H](C(=O)O)CC1)N(C)c1nc2c(c(N[C@@H](CN3C4CCCC3CC4)c3cnn(C)c3)n1)C[C@H](c1ccccc1F)CC2` [Compound 62, (1R,4r)-4-((1R)-1-(((6R)-4-(((1R)-2-(8-azabicyclo[3.2.1]octan-8-yl)-1-(1-methyl-1H-pyrazol-4-yl)ethyl)amino)-6-(2-fluorophenyl)-5,6,7,8-tetrahydroquinazolin-2-yl)(methyl)amino)propyl)cyclohexane-1-carboxylic acid] are 133 nM, 103.497 % of ANP, 207 nM and 94.244 % of ANP.
Consider `CC[C@@H](Nc1nc2c(c(N[C@@H](CN3CCC[C@H](C)C3)c3cnn(CC)c3)n1)CN(c1cccc(F)c1)CC2)[C@H]1CC[C@H](C(=O)O)CC1` [Compound 76, (1R,4r)-4-((R)-1-((4-(((R)-1-(1-ethyl-1H-pyrazol-4-yl)-2-((S)-3-methylpiperidin-1-yl)ethyl)amino)-6-(3-fluorophenyl)-5,6,7,8-tetrahydropyrido[4,3-d]pyrimidin-2-yl)amino)propyl)cyclohexane-1-carboxylic acid], for which, on monkey NPR1 (setting [1]), the AC50 amounted to 147 nM. For the same compound, at monkey NPR1 (monkey NPR1 CHO-K1 cells), the “Monkey NPR1 Amax (% of ANP)” value is reported as 100.861 % of ANP. Further, at human NPR1, the AC50 worked out at 247 nM and the “Human NPR1 Amax (% of ANP)” value was 100.752 % of ANP.
With `CC[C@H]([C@H]1CC[C@H](C(=O)O)CC1)N(C)c1nc2c(c(NC(CN3CCC[C@H](C)C3)c3cnn(CF)c3)n1)C[C@H](c1ccccc1)CC2` (stereo partly drawn) [Compound 107, (1R,4r)-4-((1R)-1-(((6R)-4-((1-(1-(fluoromethyl)-1H-pyrazol-4-yl)-2-((S)-3-methylpiperidin-1-yl)ethyl)amino)-6-phenyl-5,6,7,8-tetrahydroquinazolin-2-yl)(methyl)amino)propyl)cyclohexane-1-carboxylic acid], the AC50 at monkey NPR1 (setting [1]) is 224 nM. For the same compound, the “Monkey NPR1 Amax (% of ANP)” value on monkey NPR1 (monkey NPR1 CHO-K1 cells) is listed as 100.163 % of ANP. At human NPR1, the concentration at half-maximal activity (AC50) amounted to 404 nM and the “Human NPR1 Amax (% of ANP)” value was 97.223 % of ANP.
As to `CC[C@H]([C@H]1CC[C@H](C(=O)O)CC1)N(C)c1nc2c(c(N[C@@H](CN3CCCC(C)(F)C3)c3cnn(C)c3)n1)C[C@H](c1ccccc1)CC2` (stereo partly drawn) [Compound 144, (1R,4r)-4-((1R)-1-(((6R)-4-(((1R)-2-(3-fluoro-3-methylpiperidin-1-yl)-1-(1-methyl-1H-pyrazol-4-yl)ethyl)amino)-6-phenyl-5,6,7,8-tetrahydroquinazolin-2-yl)(methyl)amino)propyl)cyclohexane-1-carboxylic acid], the AC50 at monkey NPR1 (setting [1]) stood at 873 nM. For the same compound, on monkey NPR1 (monkey NPR1 CHO-K1 cells), the “Monkey NPR1 Amax (% of ANP)” value was 152.392 % of ANP. Besides, at human NPR1, the AC50 came out at 985 nM and the “Human NPR1 Amax (% of ANP)” value was 114.314 % of ANP.
In the same order, the values of `CC[C@@H](Nc1nc2c(c(N[C@@H](CN3CCCCC3)c3cnn(CC)c3)n1)C[C@H](c1cccc(F)c1)CC2)[C@H]1CC[C@H](C(=O)O)CC1` [Compound 30, (1R,4r)-4-((R)-1-(((R)-4-(((R)-1-(1-ethyl-1H-pyrazol-4-yl)-2-(piperidin-1-yl)ethyl)amino)-6-(3-fluorophenyl)-5,6,7,8-tetrahydroquinazolin-2-yl)amino)propyl)cyclohexane-1-carboxylic acid] are 77 nM, 99.091 % of ANP, 140 nM and 99.863 % of ANP.
In turn, `CC[C@@H](N(C)c1nc2c(c(N[C@@H](CN3C4CCCC3CCC4)c3ccnn3C)n1)C[C@H](c1ccccc1)CC2)C12CC(C(=O)O)(C1)C2` [Compound 172, 3-((R)-1-(((R)-4-(((S)-2-((1R,5R)-9-azabicyclo[3.3.1]nonan-9-yl)-1-(1-methyl-1H-pyrazol-5-yl)ethyl)amino)-6-phenyl-5,6,7,8-tetrahydroquinazolin-2-yl)(methyl)amino)propyl)bicyclo[1.1.1]pentane-1-carboxylic acid] returned an AC50 on monkey NPR1 of 2580 nM. The “Monkey NPR1 Amax (% of ANP)” value on monkey NPR1 (monkey NPR1 CHO-K1 cells) is 111.107 % of ANP. Also, on human NPR1, the AC50 was 3680 nM and the “Human NPR1 Amax (% of ANP)” value is reported as 94.632 % of ANP.
In the case of `CC[C@@H](Nc1nc2c(c(N[C@@H](CN3CCCCCC3)c3cnn(C)c3)n1)C[C@H](c1cccc(F)c1)CC2)[C@H]1CC[C@H](C(=O)O)CC1` [Compound 3, (1R,4r)-4-((R)-1-(((R)-4-(((R)-2-(azepan-1-yl)-1-(1-methyl-1H-pyrazol-4-yl)ethyl)amino)-6-(3-fluorophenyl)-5,6,7,8-tetrahydroquinazolin-2-yl)amino)propyl)cyclohexane-1-carboxylic acid], the AC50 on monkey NPR1 (setting [1]) was found to be 45 nM; on human NPR1, 66 nM. Moreover, on monkey NPR1 (monkey NPR1 CHO-K1 cells), the “Monkey NPR1 Amax (% of ANP)” value is given as 107.571 % of ANP. At human NPR1, the “Human NPR1 Amax (% of ANP)” value is 105.403 % of ANP.
Take `CC[C@@H](Nc1nc2c(c(N[C@@H](CN3CC4CCC3C4)c3ccccc3)n1)C[C@H](c1ccccc1)CC2)[C@H]1CC[C@H](C(=O)O)CC1` (stereo partly drawn) [Compound 160, (1R,4r)-4-((1R)-1-(((6R)-4-(((1R)-2-(2-azabicyclo[2.2.1]heptan-2-yl)-1-phenylethyl)amino)-6-phenyl-5,6,7,8-tetrahydroquinazolin-2-yl)amino)propyl)cyclohexane-1-carboxylic acid]: the AC50 on monkey NPR1 (setting [1]) amounted to 1430 nM. Moreover, the “Monkey NPR1 Amax (% of ANP)” value at monkey NPR1 (monkey NPR1 CHO-K1 cells) is recorded as 102.098 % of ANP. For the same compound, at human NPR1, the AC50 was determined as 1620 nM and the “Human NPR1 Amax (% of ANP)” value is 94.868 % of ANP.
In the same order, the values of `CC[C@@H](Nc1nc2c(c(N[C@@H](CN3CCCCC3)c3cnn(C(C)C)c3)n1)C[C@H](c1ccccc1)CC2)[C@H]1CC[C@H](C(=O)O)CC1` [Compound 100, (1R,4r)-4-((R)-1-(((R)-4-(((R)-1-(1-isopropyl-1H-pyrazol-4-yl)-2-(piperidin-1-yl)ethyl)amino)-6-phenyl-5,6,7,8-tetrahydroquinazolin-2-yl)amino)propyl)cyclohexane-1-carboxylic acid] are 161 nM, 105.588 % of ANP, 354 nM and 92.848 % of ANP.
As for `CC[C@H]([C@H]1CC[C@H](C(=O)O)CC1)N(C)c1nc2c(c(N[C@@H](CN3C4CCCC3CC4)c3cnn(C)c3)n1)C[C@](C)(c1ccccc1)CC2` [Compound 34, (1R,4r)-4-((1R)-1-(((6R)-4-(((1R)-2-(8-azabicyclo[3.2.1]octan-8-yl)-1-(1-methyl-1H-pyrazol-4-yl)ethyl)amino)-6-methyl-6-phenyl-5,6,7,8-tetrahydroquinazolin-2-yl)(methyl)amino)propyl)cyclohexane-1-carboxylic acid], the AC50 at monkey NPR1 came to 91 nM; at human NPR1, 146 nM. Besides, the “Monkey NPR1 Amax (% of ANP)” value at monkey NPR1 (monkey NPR1 CHO-K1 cells) is given as 100.553 % of ANP. Further, the “Human NPR1 Amax (% of ANP)” value on human NPR1 is 95.375 % of ANP.

(Values after US12129246B1, “Hydroquinazoline derivatives for the treatment of a disease or disorder” (Novartis AG, priority 2023, dated 2024).)
